Test results taken from US20210207099A1, “METHODS AND COMPOSITIONS FOR GENERATING CELLS OF ENDODERMAL LINEAGE AND BETA CELLS AND USES THEREOF” (priority 2018, published 2021).

Tested on: plated pancreatic progenitors
Experiment: Single-cell RNA sequencing of plated pancreatic progenitors treated throughout stage 4
Assay type: cell-based, human
Conditions: 0.5 μM latrunculin A throughout stage 4
Method: Cells generated with the suspension protocol were single-cell dispersed with TrypLE from clusters at the end of stage 3 and seeded onto collagen 1 coated 24-well plates at 0.625×10^6 cells/cm^2. Either 0.5 μM latrunculin A or 5 μM nocodazole were added throughout the entirety of stage 4. At the end of stage 4, cells were single-cell dispersed, suspended in DMEM, and submitted to the Washington University Genome Technology Access Center. Library preparation was done using the Chromium Single Cell 3′ Library and Gel Bead Kit v2 (10× Genomics, 120237). Briefly, single cells were isolated in emulsions using a microfluidic platform, and each single cell emulsion was barcoded with a unique set of oligonucleotides. The GemCode Platform was used to carry out reverse transcription within each single cell emulsion, which was amplified to construct a library. The libraries were sequenced with paired-end reads of 26×98 primerbp using the Illumina HiSeq2500.
Seurat v2.0 was used to perform single cell RNA analyses. Duplicate cells and cells with high mitochondrial gene expression were filtered out using FilterCells (>9000 total genes and >5% mitochondrial genes for Untreated Control, >6000 genes and >6% mitochondrial genes for latrunculin A, >12000 genes and >4% mitochondrial genes for nocodazole). Each data set was normalized using global-scaling normalization. FindVariableGenes identified and removed outlier genes using scaled z-score dispersion. The datasets were then combined and a canonical correlation analysis (CCA) was performed with RunMultiCCA. AlignSubspace was used to align the CCA subspaces and generated a new dimension reduction for integrated analysis. Unsupervised TSNE plots were generated using RunTSNE, and the resulting clusters were defined and labeled using FindMarkers. VInPlot (Violin plots) and FeaturePlot (tsne plots) were used to visualize differences in gene expressions across each cluster and conditions.

C/C1=C/C(=O)O[C@@H]2C[C@@H](CC[C@H](C)/C=C\C=C\CC1)O[C@@](O)([C@@H]1CSC(=O)N1)C2 [latrunculin A]
percentage of cells in the NKX6-1+ population (pancreatic progenitor 2): 2.5%
percentage of cells with endocrine induction: 44.7%
